Test results published in patent publication US20150073002A1, “COMBINATION” (GlaxoSmithKline LLC, priority 2010, published 2015).
Like-named read-outs stand apart in the source and are kept apart here.

What was measured:
[1] = test system: MDA-MB-361; test: Cell growth inhibition assay (Cell Titer Glo), MDA-MB-361; type: cell-based, human; settings: MDA-MB-361, 3 days, single agent, read-out: Single Agent IC50 (μM), mean ± STD
Description: (§1) Human breast tumor cell lines BT474, HCC1419, HCC1954, JIMT1, MDA-MB-361, SK-BR-3 and UACC893 were cultured in RPMI 1640 medium containing 10% FBS. BT-474-J4, a breast cancer cell line acquired resistant to Compound A was cultured in RPMI 1640 medium containing 10% FBS and 1 μM of Compound A. KPL4 breast cancer line was cultured in DMEM containing 5% FBS. All lines were kept in a humidified incubator at 37° C. in 95% air and 5% CO2. JIMT-1 is a cell line established from a tumor of a patient with trastuzumab-resistant breast cancer. BT-474-J4 is a single cell clone derived from a culture of BT-474 cells that were selected to grow in Compound A to a concentration of 3 μM.
All cells were cultured for a minimum of 72 hours prior to cell plating. Cells were assayed in a 96-well tissue culture plate (NUNC 136102) of RPMI medium containing 10% FBS for all cells at 2,000 cells per well except KPL4, which were plated in DMEM containing 5% FBS at 500 cells per well. […] ATP levels were determined by adding Cell Titer Glo® (Promega) according to the manufacturer's protocol. Briefly, Cell Titer Glo® was added to each plate, incubated for 20 minutes then the luminescent signal was read on a SpectraMax L plate reader with a 0.5 sec integration time.
(§2) Inhibition of cell growth was estimated after treatment with compound or a combination of compounds for three days and comparing the signal to cells treated with vehicle (DMSO). Cell growth was calculated relative to vehicle (DMSO) treated control wells. […]
(§3) Combination effects on potency were evaluated using Combination Index (CI) which was calculated with the back-interpolated IC50 values and the mutually non-exclusive equation derived by Chou and Talalay (Chou T C, Talalay P. Quantitative analysis of dose-effect relationships: the combined effects of multiple drugs or enzyme inhibitors. Adv Enzyme Regul 1984; 22:27-55): […]

[2] = test system: HCC1419; test: Cell growth inhibition assay (Cell Titer Glo), HCC1419; type: cell-based; settings: Homo sapiens, 72 h; HCC1419, 3 days, single agent; read-out: Single Agent IC50 (μM), mean ± STD
Description: as §1
(§4) All cells were cultured for a minimum of 72 hours prior to cell plating. […] ATP levels were determined by adding Cell Titer Glo® (Promega) according to the manufacturer's protocol. Briefly, Cell Titer Glo® was added to each plate, incubated for 20 minutes then the luminescent signal was read on a SpectraMax L plate reader with a 0.5 sec integration time.
as §2

[3] = test system: JIMT-1; test: Cell growth inhibition assay (Cell Titer Glo), JIMT-1; type: cell-based, human; settings: JIMT-1, 3 days, single agent, read-out: Single Agent IC50 (μM), mean ± STD
Description: as §1
(§5) All cells were cultured for a minimum of 72 hours prior to cell plating. Cells were assayed in a 96-well tissue culture plate (NUNC 136102) of RPMI medium containing 10% FBS for all cells at 2,000 cells per well except KPL4, which were plated in DMEM containing 5% FBS at 500 cells per well. Approximately 24 hours after plating, cells were exposed to ten, two-fold or three-fold serial dilutions of compound or the combination of the two agents at a constant molar to molar ratio of 1:1 Compound A to Compound B in RPMI media containing 10% FBS or DMEM containing 5% FBS for KPL4. Cells were incubated in the presence of compounds for 3 days. ATP levels were determined by adding Cell Titer Glo® (Promega) according to the manufacturer's protocol. Briefly, Cell Titer Glo® was added to each plate, incubated for 20 minutes then the luminescent signal was read on a SpectraMax L plate reader with a 0.5 sec integration time.
as §2, §3
(§6) The combination effects on the response scale were quantified by Excess Over Highest Single Agent (EOHSA) [Liu L, Shi H, Liu Y, Anderson A, Peterson J, Greger J, Martin A M, Gilmer T M. Synergistic Effects of Foretinib with HER-Targeted Agents in MET and HER1- or HER2-Coactivated Tumor Cells. […] For single agent and combination treatments, cells were exposed to compounds at a fixed-dose-ratio, and dose response curves were fit to the experimental data and analyzed using regression models described above. […]

[4] = test system: SK-BR-3; test: Cell growth inhibition assay (Cell Titer Glo), SK-BR-3; type: cell-based; settings: Homo sapiens, 72 h; SK-BR-3, 3 days, single agent; read-out: Single Agent IC50 (μM), mean ± STD
Description: as §1, §4, §2

[5] = test system: BT-474-J4; test: Cell growth inhibition assay (Cell Titer Glo), BT-474-J4; type: cell-based, human; settings: BT-474-J4, 3 days, single agent, read-out: Single Agent IC50 (μM), mean ± STD
Description: as §1, §5, §2

[6] = test system: KPL4; test: Cell growth inhibition assay (Cell Titer Glo), KPL4; type: cell-based; settings: Homo sapiens, 72 h; KPL4, 3 days, single agent; read-out: Single Agent IC50 (μM), mean ± STD
Description: as §1, §4, §2

[7] = test system: KPL-4; test: Cell apoptosis induction, caspase-3/7 activation, KPL-4; type: cell-based, human
Description: as §1
(§7) For investigation of the induction of apoptosis, cells were plated at 5,000 cells per well in a 96-well tissue culture plate and allowed to attach for approximately 24 hours. Cells were exposed to ten, two-fold or three-fold serial dilutions of compound or the combination of the two agents at a constant molar to molar ratio of 10:1 Compound A to Compound B in RPMI media containing 10% FBS or DMEM containing 5% FBS for KPL4. Twenty-four hours after compound treatment, caspase 3/7 activity was determined with the Caspase Glo™ 3/7 (Promega, cat G8093) according to the instructions provided by the manufacturer.

[8] = test system: BT474-J4, and MDA-MB-361; test: Cell growth inhibition, text summary over two lines; type: cell-based; settings: Homo sapiens, 72 h; over BT474-J4 and MDA-MB-361 lines, 3 days; read-out: IC50 as a single agent
Description: All cells were cultured for a minimum of 72 hours prior to cell plating. […] Cells were incubated in the presence of compounds for 3 days. ATP levels were determined by adding Cell Titer Glo® (Promega) according to the manufacturer's protocol.
Cell growth was calculated relative to vehicle (DMSO) treated control wells.
In general, a CI value <0.9, between 0.9 and 1.1, or >1.1 indicates synergy, additivity and antagonism, respectively. In general, the smaller the CI number, the greater is the strength of synergy.

[9] = test system: HCC1954; test: Cell growth inhibition assay (Cell Titer Glo), HCC1954; type: cell-based; settings: Homo sapiens, 72 h; HCC1954, 3 days, single agent; read-out: Single Agent IC50 (μM), mean ± STD
Description: as §1, §4, §2

[10] = test system: BT-474; test: Cell growth inhibition assay (Cell Titer Glo), BT-474; type: cell-based; settings: Homo sapiens, 72 h; BT-474, 3 days, single agent; read-out: Single Agent IC50 (μM), mean ± STD
Description: as §1, §4, §2

[11] = test system: BT474-J4; test: Cell apoptosis induction, caspase-3/7 activation, BT474-J4; type: cell-based, human; settings: BT474-J4, 24 hours
Description: as §1, §7

[12] = test system: BT474; test: Cell apoptosis induction, caspase-3/7 activation, BT474; type: cell-based, human; settings: BT474, 24 hours
Description: as §1, §7

[13] = test system: KPL-4, UACC893 and HCC1954 lines; test: Cell growth inhibition, text summary over three lines; type: cell-based; settings: Homo sapiens, 72 h; over KPL-4, UACC893 and HCC1954 lines, 3 days; read-out: IC50 as a single agent
Description: as §1, §5, §2, §3, §6

[14] = test system: HCC1419, SK-BR-3 and BT474 lines; test: as above; type: cell-based; settings: Homo sapiens, 72 h; over HCC1419, SK-BR-3 and BT474 lines, 3 days; read-out: IC50 as a single agent
Description: as §1, §5, §2, §3, §6

[15] = test system: UACC893; test: Cell growth inhibition assay (Cell Titer Glo), UACC893; type: cell-based; settings: Homo sapiens, UACC-893, 72 h; UACC893, 3 days, single agent; read-out: Single Agent IC50 (μM), mean ± STD
Description: as §1, §4, §2

| IC50 ([1]; Homo sapiens, MDA-MB-361, 72 h) [µM] | IC50 [2] [µM] | IC50 [4] [µM] | IC50 ([5]; Homo sapiens, 72 h) [µM] | IC50 [9] [µM] | IC50 [10] [µM] | IC50 [13] [nM] | IC50 [14] [nM] | Structure (SMILES) | IC50 ([3]; Homo sapiens, JIMT-1, 72 h) [µM] | IC50 [3] [µM] | IC50 [6] [µM] | IC50 [15] [µM] | also measured |
| --- | --- | --- | --- | --- | --- | --- | --- | --- | --- | --- | --- | --- | --- |
| > 10 | 0.077 ± 0.017 | 0.105 ± 0.039 | 9.23 ± 3.83 | 1.73 ± 0.165 | 0.134 ± 0.049 | 900 to 1700 | ≤ 134 | CS(=O)(=O)CCNCc1ccc(-c2ccc3ncnc(Nc4ccc(OCc5cccc(F)c5)c(Cl)c4)c3c2)o1 [Compound A, N-{3-Chloro-4-[(3-fluorobenzyl)oxy]phenyl}-6-[5-({[2-(methanesulphonyl)ethyl]amino}methyl)-2-furyl]-4-quinazolinamine, reference compound] | ≥ 6.8 | > 10 | 0.86 ± 0.039 | 1.12 ± 0.15 | caspase 3/7 activity ([7]; KPL4, 24 hours, compound alone at 10 μM): slight increase in caspase 3/7 activity; IC50 [8]: ≥ 9200 nM; caspase 3/7 activity ([11]; compound alone at 10 μM): slight increase in caspase 3/7 activity; caspase 3/7 activity ([12]; compound alone, dose response): increased caspase 3/7 activity in a dose dependent manner |
| 0.7 | 2.62 ± 0.548 | 4.19 ± 1.58 | 0.5 | 3.67 ± 2.97 | 3.3 ± 1.1 | 500 to 3700 | ≥ 2600 | Cn1ncc(Cl)c1-c1cc(C(=O)N[C@H](CN)Cc2cccc(F)c2)sc1Cl [Compound B, N-{(1S)-2-amino-1-[(3-fluorophenyl)methyl]ethyl}-5-chloro-4-(4-chloro-1-methyl-1H-pyrazol-5-yl)-2-thiophenecarboxamide] | ≥ 6.8 | 6.81 ± 2.13 | 0.113 ± 0.012 | 0.505 ± 0.303 | IC50 [1]: 0.758 ± 0.074 µM; IC50 [5]: 0.67 ± 0.026 µM; caspase 3/7 activity ([7]; KPL-4, 24 hours, compound alone at 1 μM): but not in the KPL-4 line; caspase 3/7 activity ([11]; compound alone at 1 μM): slightly increased caspase 3/7 activity; caspase 3/7 activity ([12]; compound alone at 1 μM): slightly increased caspase 3/7 activity |
